The source of these data is paper PMC5845004, “Novel (p)ppGpp Binding and Metabolizing Proteins of Escherichia coli” (mBio, 2018).

The target in one test is PPX. On the set-up: method as in ref 35 (Table S1 ref 20). Conditions: competitive; ref 35 (Table S1 ref 20); read-out: inhibitory constant Ki, PPX; cited from earlier work.
In a further test the target is RsgA. Details: method as in Table S1 (4). Conditions: ref Table S1 (4); read-out: Kd, S. aureus RsgA (converted); cited from earlier work.
A further test addresses Der (Escherichia coli, UniProt P0A6P5). Kind of test: DRaCALA Kd determination, purified Der. It is filed as binding, E. coli. Conditions: 2 nM 32P-labeled ligand, read-out: apparent Kd, Der.
For another test, the target named is Hpt (Escherichia coli, UniProt P0A9M2). As to the kind of experiment: DRaCALA Kd determination, purified Hpt. It is filed as binding, E. coli. The settings on record: 2 nM 32P-labeled ligand, read-out: apparent Kd, Hpt.
The target in another test is HprT. Details: method as in ref 39 (Table S1 ref 4). Conditions: ref 39 (Table S1 ref 4); read-out: Kd, S. aureus HprT; cited from earlier work.
The target in a further test is HypB (Escherichia coli, UniProt P0AAN3). As to the kind of experiment: DRaCALA Kd determination, purified HypB. Format: binding, E. coli. Conditions: 2 nM 32P-labeled ligand, read-out: apparent Kd, HypB.
The target of the next test is T1, UshA (Escherichia coli, UniProt P07024).
T1 sequence (P07024 26-550): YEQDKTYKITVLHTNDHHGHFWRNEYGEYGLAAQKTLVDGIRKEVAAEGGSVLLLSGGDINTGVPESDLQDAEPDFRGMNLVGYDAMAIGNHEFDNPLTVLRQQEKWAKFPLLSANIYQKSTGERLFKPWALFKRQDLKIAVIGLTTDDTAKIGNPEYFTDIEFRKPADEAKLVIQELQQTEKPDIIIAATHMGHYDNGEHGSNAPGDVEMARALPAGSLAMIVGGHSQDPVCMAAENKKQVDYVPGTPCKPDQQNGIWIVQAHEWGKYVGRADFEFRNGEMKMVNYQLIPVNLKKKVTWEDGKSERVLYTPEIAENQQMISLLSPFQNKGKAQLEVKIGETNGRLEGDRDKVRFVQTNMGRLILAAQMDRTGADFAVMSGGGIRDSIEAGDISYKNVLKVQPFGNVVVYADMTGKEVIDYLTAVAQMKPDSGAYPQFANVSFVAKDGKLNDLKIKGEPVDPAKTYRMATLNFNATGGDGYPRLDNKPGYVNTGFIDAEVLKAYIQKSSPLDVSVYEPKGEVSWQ
Kind of test: DRaCALA competition assay, lysate with overexpressed UshA. It is filed as binding. Conditions: cell lysate, 2 nM hot (p)ppGpp, 100 µM cold competitor. The method, then: (§1) Bacterial cells were collected and frozen at −80°C.

The target in another test is ObgE (Escherichia coli, UniProt P42641). Kind of test: DRaCALA Kd determination, purified ObgE. Conditions: 2 nM 32P-labeled ligand, read-out: apparent Kd, ObgE (converted). Format: binding, E. coli.
For the next test, the target named is T2, NudG (Escherichia coli, UniProt P77788).
T2 construct: expressed in transfected cells; host or cells: E. coli ASKA collection strain, IPTG-induced, whole-cell lysate
As to the kind of experiment: DRaCALA competition assay, lysate with overproduced NudG. It is filed as binding, E. coli. Conditions: whole-cell lysate, 2 nM hot (p)ppGpp, 100 µM cold competitor. The method, then:
as §1

Test [1] concerns the target Era. On the set-up: method as in Table S1 (4). The settings on record: ref Table S1 (4); read-out: Kd, S. aureus Era (converted); cited from earlier work.
Test [2] has as its target Era (Escherichia coli, UniProt P06616). As to the kind of experiment: DRaCALA Kd determination, purified Era. Format: binding, E. coli. Conditions: 2 nM 32P-labeled ligand, read-out: apparent Kd, Era (converted).
Method: (§2) For Kd measurements by DRaCALA, 2-fold serial dilutions from the highest possible concentrations of each purified protein were prepared in binding buffer B, and approximately 2 nM concentrations of α-^32P-labeled ppGpp, pppGpp, GTP, and GDP were added. The mixtures were incubated for 5 min at RT before spotting of 2 µl of the reaction mixtures onto nitrocellulose membranes. The fractions of bound ligand and the apparent Kd values were calculated as previously described ([37]).
The next test deals with RF3 (PrfC) (Escherichia coli, UniProt P0A7I4). Kind of test: DRaCALA Kd determination, purified RF3. It is filed as binding, E. coli. Conditions: 2 nM 32P-labeled ligand, read-out: apparent Kd, RF3 (PrfC).
For another test, the target named is Gpt (Escherichia coli, UniProt P0A9M5). As to the kind of experiment: DRaCALA Kd determination, purified Gpt. The settings on record: 2 nM 32P-labeled ligand, read-out: apparent Kd, Gpt. It is filed as binding, E. coli.
A further test concerns the target HflX. On the set-up: method as in Table S1 (4). The settings on record: ref Table S1 (4); read-out: Kd, S. aureus HflX (converted); cited from earlier work.
Test [3] concerns the target DerG1 (residues 2 to 184) (Escherichia coli, UniProt P0A6P5). Kind of test: DRaCALA Kd determination, Der G1 domain. The settings on record: 2 nM 32P-labeled ligand, read-out: apparent Kd, DerG1. It is filed as binding, E. coli.
Method: (§3) For Kd measurements by DRaCALA, 2-fold serial dilutions from the highest possible concentrations of each purified protein were prepared in binding buffer B, and approximately 2 nM concentrations of α-^32P-labeled ppGpp, pppGpp, GTP, and GDP were added. The mixtures were incubated for 5 min at RT before spotting of 2 µl of the reaction mixtures onto nitrocellulose membranes. The fractions of bound ligand and the apparent Kd values were calculated as previously described ([37]). For competition assays, purified proteins at the specified concentrations were incubated with 2 nM [α-^32P]ppGpp or [α-^32P]pppGpp in the presence of 100 μM competitor nucleotides in binding buffer B. The reaction mixtures were incubated for 5 min at RT, 2 µl was spotted onto nitrocellulose membranes, and the values corresponding to the bound fractions were determined. EDTA was added at excess concentrations as specified for each case.
Another test deals with Gmk. On the set-up: method as in Table S1 (4). The settings on record: ref Table S1 (4); read-out: Kd, S. aureus Gmk; cited from earlier work.

Several values for one entry are separate records, joined by “and”; a condition that tells them apart may be missing. Equal entries are not always repeated.

Der, sequence (P0A6P5 whole entry): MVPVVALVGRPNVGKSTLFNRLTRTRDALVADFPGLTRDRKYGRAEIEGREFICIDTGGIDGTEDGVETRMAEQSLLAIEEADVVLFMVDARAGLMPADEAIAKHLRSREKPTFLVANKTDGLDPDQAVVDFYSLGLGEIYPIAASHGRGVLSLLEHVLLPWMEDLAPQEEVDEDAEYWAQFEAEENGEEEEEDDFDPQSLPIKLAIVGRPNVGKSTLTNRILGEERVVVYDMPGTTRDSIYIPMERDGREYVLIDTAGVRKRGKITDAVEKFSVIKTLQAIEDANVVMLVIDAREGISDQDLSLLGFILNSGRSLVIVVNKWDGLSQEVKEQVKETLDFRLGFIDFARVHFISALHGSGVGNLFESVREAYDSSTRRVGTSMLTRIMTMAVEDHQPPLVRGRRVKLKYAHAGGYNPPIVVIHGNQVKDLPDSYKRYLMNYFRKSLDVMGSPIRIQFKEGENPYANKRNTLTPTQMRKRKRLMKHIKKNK
T2 sequence (P77788 whole entry): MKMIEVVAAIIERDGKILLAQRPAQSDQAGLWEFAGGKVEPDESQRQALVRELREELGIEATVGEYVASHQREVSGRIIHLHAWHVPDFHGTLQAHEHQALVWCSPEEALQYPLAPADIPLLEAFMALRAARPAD
Hpt, sequence (P0A9M2 whole entry): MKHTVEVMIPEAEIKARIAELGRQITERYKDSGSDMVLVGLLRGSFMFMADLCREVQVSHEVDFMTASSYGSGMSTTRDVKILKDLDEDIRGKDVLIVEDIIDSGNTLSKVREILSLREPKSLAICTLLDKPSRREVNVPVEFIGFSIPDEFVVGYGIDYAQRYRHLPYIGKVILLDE
Era (Escherichia coli, UniProt P06616), sequence (P06616 whole entry): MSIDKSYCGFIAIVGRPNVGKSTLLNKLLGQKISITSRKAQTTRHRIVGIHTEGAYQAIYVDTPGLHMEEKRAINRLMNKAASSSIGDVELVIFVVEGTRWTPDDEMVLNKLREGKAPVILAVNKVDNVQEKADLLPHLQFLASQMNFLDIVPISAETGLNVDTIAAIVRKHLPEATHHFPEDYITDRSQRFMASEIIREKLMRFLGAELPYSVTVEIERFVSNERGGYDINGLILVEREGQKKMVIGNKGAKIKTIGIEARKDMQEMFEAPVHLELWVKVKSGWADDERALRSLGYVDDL
RF3 (PrfC), sequence (P0A7I4 whole entry): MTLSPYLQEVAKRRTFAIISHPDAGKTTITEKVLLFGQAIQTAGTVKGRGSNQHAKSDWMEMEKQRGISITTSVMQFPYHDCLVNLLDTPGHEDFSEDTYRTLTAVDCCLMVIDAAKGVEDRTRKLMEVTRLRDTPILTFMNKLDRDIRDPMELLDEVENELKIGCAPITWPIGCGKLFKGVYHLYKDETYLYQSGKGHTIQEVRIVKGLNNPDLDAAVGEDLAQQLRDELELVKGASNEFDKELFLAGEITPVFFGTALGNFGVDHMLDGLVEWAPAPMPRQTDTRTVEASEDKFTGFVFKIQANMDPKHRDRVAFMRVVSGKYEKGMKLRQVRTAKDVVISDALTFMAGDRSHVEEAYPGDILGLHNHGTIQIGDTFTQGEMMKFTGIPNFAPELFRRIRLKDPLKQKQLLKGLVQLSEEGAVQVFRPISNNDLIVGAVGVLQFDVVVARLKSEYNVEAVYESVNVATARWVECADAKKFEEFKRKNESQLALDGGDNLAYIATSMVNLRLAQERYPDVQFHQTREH
Gpt, sequence (P0A9M5 whole entry): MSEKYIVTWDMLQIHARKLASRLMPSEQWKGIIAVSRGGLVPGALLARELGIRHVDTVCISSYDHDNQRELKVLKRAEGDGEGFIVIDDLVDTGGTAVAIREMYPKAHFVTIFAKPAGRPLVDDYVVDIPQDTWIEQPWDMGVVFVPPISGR
DerG1 (residues 2 to 184), sequence (P0A6P5 2-184): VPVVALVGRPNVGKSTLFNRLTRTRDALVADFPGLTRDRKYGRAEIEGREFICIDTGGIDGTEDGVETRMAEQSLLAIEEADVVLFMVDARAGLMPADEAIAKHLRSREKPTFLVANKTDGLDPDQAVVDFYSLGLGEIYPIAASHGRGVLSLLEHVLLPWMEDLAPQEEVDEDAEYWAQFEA
ObgE, sequence (P42641 whole entry): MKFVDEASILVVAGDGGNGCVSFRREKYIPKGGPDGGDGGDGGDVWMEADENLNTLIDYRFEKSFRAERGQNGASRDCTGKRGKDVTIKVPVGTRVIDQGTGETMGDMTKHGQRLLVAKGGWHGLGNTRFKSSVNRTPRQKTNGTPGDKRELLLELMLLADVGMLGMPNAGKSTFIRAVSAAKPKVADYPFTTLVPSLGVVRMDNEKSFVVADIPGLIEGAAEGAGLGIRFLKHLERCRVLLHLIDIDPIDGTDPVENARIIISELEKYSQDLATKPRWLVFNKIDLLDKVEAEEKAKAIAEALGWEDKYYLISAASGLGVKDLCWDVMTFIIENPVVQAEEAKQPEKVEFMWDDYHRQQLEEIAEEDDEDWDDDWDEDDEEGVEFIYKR
HypB, sequence (P0AAN3 whole entry): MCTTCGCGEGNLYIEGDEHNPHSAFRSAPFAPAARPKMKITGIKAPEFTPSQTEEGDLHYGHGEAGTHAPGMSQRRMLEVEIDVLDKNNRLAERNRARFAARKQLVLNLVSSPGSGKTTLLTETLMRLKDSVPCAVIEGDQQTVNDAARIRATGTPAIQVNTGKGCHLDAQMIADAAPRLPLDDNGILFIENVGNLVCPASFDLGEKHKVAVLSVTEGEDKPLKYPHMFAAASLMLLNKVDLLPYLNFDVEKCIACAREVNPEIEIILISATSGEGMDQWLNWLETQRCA
Method for Gpt: as §2
Method for Hpt: as §3
Method for HypB: For Kd measurements by DRaCALA, 2-fold serial dilutions from the highest possible concentrations of each purified protein were prepared in binding buffer B, and approximately 2 nM concentrations of α-^32P-labeled ppGpp, pppGpp, GTP, and GDP were added. The mixtures were incubated for 5 min at RT before spotting of 2 µl of the reaction mixtures onto nitrocellulose membranes. […] For competition assays, purified proteins at the specified concentrations were incubated with 2 nM [α-^32P]ppGpp or [α-^32P]pppGpp in the presence of 100 μM competitor nucleotides in binding buffer B. The reaction mixtures were incubated for 5 min at RT, 2 µl was spotted onto nitrocellulose membranes, and the values corresponding to the bound fractions were determined. EDTA was added at excess concentrations as specified for each case.
Method for ObgE: as §2
Method for RF3 (PrfC): as §2

For `Nc1nc2c(ncn2[C@@H]2O[C@H](COP(=O)(O)OP(=O)(O)OP(=O)(O)O)[C@@H](OP(=O)(O)OP(=O)(O)O)[C@H]2O)c(=O)[nH]1` [pppGpp, guanosine pentaphosphate], the inhibition constant Ki (as a rule, a measure of affinity in units of concentration, obtained from inhibition or displacement) on PPX was 10 µM. Besides, the Kd on RsgA is 10.3 µM; at Der it was 6.9 ± 2.9 µM; on Hpt, 6.2 ± 0.8 µM; on HprT it was 0.75 µM; on HypB, 14.8 ± 5.1 µM; on ObgE, 6.6 µM. The Kd at Era [1] is 3.85 µM; at Era [2] it was 21.4 µM; on RF3 (PrfC) it was 15 ± 5 µM; at Gpt, 6.7 ± 0.9 µM; at HflX, 13.6 µM; in [3], 4.7 ± 2.3 µM. For the same molecule, the Kd at Gmk is 4.01 µM. At UshA, the “competition for UshA-bound (p)ppGpp” value is listed as “could outcompete the bound, radiolabeled (p)ppGpp”. In addition, the “competition for NudG-bound (p)ppGpp” value on NudG was “could outcompete the bound, radiolabeled (p)ppGpp”.

`Nc1nc2c(ncn2[C@@H]2O[C@H](COP(=O)(O)OP(=O)(O)O)[C@@H](OP(=O)(O)OP(=O)(O)O)[C@H]2O)c(=O)[nH]1` [ppGpp, guanosine tetraphosphate]: the Ki at PPX is 200 µM. Moreover, the Kd at RsgA is 1.69 ± 0.13 µM; at Der, 1.8 µM and 1.77 µM; at Hpt, 6.1 ± 0.9 µM; on HprT, 0.37 µM; at HypB it was 12.4 ± 3 µM; at ObgE, 1.8 ± 0.3 µM. Moreover, the Kd at Era [1] was 0.95 ± 0.06 µM; on Era [2] it was 4.3 ± 0.6 µM; on RF3 (PrfC), 0.82 ± 0.09 µM; at Gpt, 5.2 ± 0.9 µM; on HflX, 0.87 ± 0.15 µM; in [3] it was 5.9 ± 2.5 µM. The Kd at Gmk was 6.02 µM. Moreover, the “competition for UshA-bound (p)ppGpp” value at UshA is “could outcompete the bound, radiolabeled (p)ppGpp”. The “competition for NudG-bound (p)ppGpp” value on NudG was “could outcompete the bound, radiolabeled (p)ppGpp”.
